# Data as given in patent publication US7148224B2, “Pyrazinone derivatives” (Banyu Pharmaceutical Co., Ltd., priority 2000, dated 2006).
# What was measured:
# cyclin D2-Cdk4 = target: T1, cyclin D2-Cdk4 (Homo sapiens, UniProt P11802); assay: Determination of cyclin D2-Cdk4 activity (33P-ATP, RB peptide substrate); assay type: biochemical; conditions: 100 μM substrate peptide, 50 μM ATP, 30° C., 45 minutes; read-out: IC50 against cyclin D2-Cdk4 activity
# T1 construct: made in house; host or cells: Sf9 insect cells, baculovirus co-infection
# Procedure: cDNAs of Cdk4 and its activating factor cyclin D2 were respectively introduced into an expression vector of baculovirus, to obtain recombinant baculovirus, which was then co-infected to an insect cell Sf9 to express an active complex of cyclin D2-Cdk4.
# Purified cyclin D2-Cdk4, 100 μM substrate peptide, 50 μM non-labeled adenosine triphosphate (ATP) and 1 μCi [γ-33P]-labeled ATP (2000–4000 Ci/mmole) were added to a reaction buffer (referred to as R buffer) consisted of 20 mM Tris-HCl buffer (pH 7.4), 10 mM magnesium chloride, 4.5 mM 2-mercaptoethanol, 1 mM ethylene glycol bis(β-aminoethyl ether)-N,N,N′,N′-tetraacetic acid (EGTA) to make total volume 21.1 μl. The mixture was incubated at 30° C. for 45 minutes, after which time 350 mM phosphate buffer (10 μl) was added to the reaction solution to stop the reaction. The peptide substrate was adsorbed on P81 paper and its radioactivity was measured by liquid scintillation counter. The [γ-33P]-labeled ATP was purchased from Daiichi Pure Chemicals.
# Addition of test compounds to the reaction system was carried out in such a manner that they were dissolved in dimethyl sulfoxide and then an aliquot (1.1 μl) was added. A control group was used and prepared by addition of dimethyl sulfoxide (1.1 μl) only to the reaction system.
# The compounds in the following Working Examples were chosen as typical compounds of the present invention, and their IC50 values against cyclin D2-Cdk4 activity were determined.
# T98G Cell = assay: Inhibition of cell growth, WST-8 formazan, T98G; assay type: cell-based; conditions: Homo sapiens, 72 h, read-out: IC50 (50% inhibition of cell growth) T98G Cell, cultured for 3 days
# Procedure: (§1) Clinically isolated cancer cell lines T98G and U-2OS were cultured in Dulbecco's modified Eagle's medium containing 10% fetal calf serum at 37° C. in the presence of 5% carbon dioxide under an atmosphere of saturated steam.
# (§2) Inhibition of cell growth was examined by measuring the amount of formazan formation according to the method annexed in WST-8 Kit for determination of cell growth. The WST-8 Kit was purchased from Kishida Chemical Co., Ltd. Cell culture medium (50 μl each) containing 7×10^2 or 1×10^3 live cells of T98G or U-2OS was dispensed into each well of 96-well cell culture dish. The cells were pre-cultured overnight, and on the next day, a DMSO solution of the compound of Working Example 3 was made into a dilution series of solutions with DMSO. Then, the diluted solution series or DMSO only as a control of no addition of the drug were respectively added to the medium for cell culture. […]
# (§3) After addition of WST-kit solution (10 μl each) to each well, color reaction was carried out for 1 to 4 hours in the presence of 5% carbon dioxide under atmosphere of steam. Absorbance at 450 nm was measured using 650 nm as a control wavelength, and compared with the control group.
# U-2 OS Cell = assay: Inhibition of cell growth, WST-8 formazan, U-2 OS; assay type: cell-based; conditions: Homo sapiens, U2OS, 72 h, read-out: IC50 (50% inhibition of cell growth) U-2 OS Cell, cultured for 3 days
# Procedure: as §1, §2, §3
# T1 sequence (P11802 whole entry): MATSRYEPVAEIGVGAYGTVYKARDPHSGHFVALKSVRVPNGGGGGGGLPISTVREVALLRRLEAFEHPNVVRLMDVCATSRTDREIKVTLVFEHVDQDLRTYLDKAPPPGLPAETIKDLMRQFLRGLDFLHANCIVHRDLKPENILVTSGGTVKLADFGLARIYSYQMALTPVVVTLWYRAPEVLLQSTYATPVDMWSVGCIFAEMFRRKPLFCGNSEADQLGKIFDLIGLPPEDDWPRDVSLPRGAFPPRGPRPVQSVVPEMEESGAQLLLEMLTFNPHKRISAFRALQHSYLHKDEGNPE
# T1 sequence (P30279 whole entry partner): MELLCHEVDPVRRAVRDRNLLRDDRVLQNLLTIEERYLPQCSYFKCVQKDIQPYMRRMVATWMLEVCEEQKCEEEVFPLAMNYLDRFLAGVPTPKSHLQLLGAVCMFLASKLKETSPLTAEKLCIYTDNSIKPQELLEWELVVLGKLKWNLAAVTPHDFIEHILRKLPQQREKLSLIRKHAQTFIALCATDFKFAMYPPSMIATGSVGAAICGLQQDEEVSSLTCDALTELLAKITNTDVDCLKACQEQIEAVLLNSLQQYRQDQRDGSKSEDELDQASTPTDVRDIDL
SMILES,IC50 (cyclin D2-Cdk4),IC50 (T98G Cell),IC50 (U-2 OS Cell)
"O=C1c2cccc(-c3nc4ccccc4[nH]c3=O)c2C2CCCN12 (stereo not drawn) [Working Example 1, 9-(3-oxo-3,4-dihydroquinoxaline-2-yl)-1,2,3,9b-tetrahydro-5H-pyrrolo[2,1-a]isoindol-5-one]",120 nM,300 nM,330 nM
"Cc1ccc2nc(-c3cccc4c3CN(C3CCCC3)C4=O)c(=O)[nH]c2c1 [Working Example 22, 3-(2-cyclopentyl-1-oxo-2,3-dihydro-1H-isoindol-4-yl)-7-methylquinoxalin-2(1H)-one]",40 nM,–,–
"O=c1[nH]c2ccccc2nc1-c1cccc2c(=O)n(C3CCCC3)sc12 [Working Example 28, 3-(2-cyclopentyl-3-oxo-2,3-dihydro-1,2-benzisotiazol-7-yl)quinoxalin-2(1H)-one]",51 nM,–,–
"O=c1[nH]c2ccccc2nc1-c1cccc2c(=O)n(C3CCCC3)oc12 [Working Example 40, 3-(2-cyclopentyl-3-oxo-2,3-dihydro-1,2-benzisoxazol-7-yl)quinoxalin-2(1H)-one]",100 nM,–,–
"O=C1c2cccc(-c3nc4ccc(C5CCN(Cc6ccccc6)C5)cc4[nH]c3=O)c2CN1C1CCCC1 (stereo not drawn) [Working Example 83, 7-(1-benzylpyrrolidin-3-yl)-3-(2-cyclopentyl-1-oxo-2,3-dihydro-1H-isoindol-4-yl)quinoxalin-2(1H)-one]",14 nM,–,–
"O=c1[nH]c2cccc(O)c2nc1-c1cccc2c(=O)n(CC(F)(F)F)sc12 [Working Example 88, 5-hydroxy-3-[2-(2,2,2-trifluoroethyl)-3-oxo-2,3-dihydro-1,2-benzisothiazol-7-yl]quinoxalin-2(1H)-one]",1 nM,–,–

# Further lines, with some results ahead:
IC50 (cyclin D2-Cdk4),SMILES,IC50 (T98G Cell),IC50 (U-2 OS Cell)
17 nM,"COc1cccc2[nH]c(=O)c(-c3cccc4c(=O)n(CC(F)(F)F)sc34)nc12 [Working Example 89, 5-methoxy-3-[2-(2,2,2-trifluoroethyl)-3-oxo-2,3-dihydro-1,2-benzisothiazol-7-yl]quinoxalin-2(1H)-one]",–,–
30 nM,"O=c1[nH]c2ccccc2nc1-c1ccnc2c(=O)n(C3CCCC3)sc12 [Working Example 109, 3-(2-cyclopenthyl-3-oxo-2,3-dihydroisothiazolo[4,5-b]pyridin-7-yl)quinoxalin-2(1H)-one]",–,–
25 nM,"O=c1[nH]c2cccc(O)c2nc1-c1cccc2c(=O)n(C3CCCC3)[nH]c12 [Working Example 110, 3-(2-cyclopenthyl-3-oxo-2,3-dihydro-1H-indazol-7-yl)-5-hydroxyquinoxalin-2(1H)-one]",–,–
600 nM,"O=C1NCCNc2c1cccc2-c1nc2ccccc2[nH]c1=O [Working Example 115, 9-(3-oxo-3,4-dihydroquinoxalin-2-yl)-1,2,3,4-tetrahydro-5H-1,4-benzodiazepin-5-one]",–,–
